We go through eleven compounds from ChEMBL document CHEMBL4052640 (Eur J Med Chem, 2017).

The structures appear in SMILES notation.

By EC50 is commonly meant the concentration giving half of the maximal effect. High values mean lower potency in that assay, low ones higher potency in that assay. As a reminder, the CC50 is the concentration that lowers cell viability or growth by half.

For one data set, the system named is Punta Toro virus. It counts as functional. The settings on record: Vero.
The test system of data set [1] is Coxsackievirus B4. The data set is classed as functional, cell-based. The following applies: Enterovirus B, HeLa.
For another data set, the system named is MDCK. As to the kind of experiment: Cytotoxicity against dog MDCK cells assessed as reduction in cell viability measured after 5 to 6 days by MTS assay. The data set is classed as cell-based, Canis lupus familiaris. A general note: Tetrazolium dyes change colour on reduction, which living cells bring about.
Data set [2] can be described thus: cells. The following applies: Influenza A virus, MDCK.
Data set [3] can be described thus: cells. The settings on record: Influenza A virus, MDCK. This is another data set of the same source.
The subject of the next data set is Yellow fever virus. The data set is described as follows: microbe, parasite or virus in culture. The following applies: Vero.
In data set [4] the test system is Vesicular stomatitis virus. The data set is described as follows: microbe, parasite or virus in culture. The following applies: HeLa.
A short description of data set [5]: cells. The settings on record: MDCK.
Another data set concerns Influenza B virus. The data set is described as follows: microbe, parasite or virus in culture. The settings on record: B/Ned/537/05, MDCK.
In data set [6] the test system is Coxsackievirus B4. It counts as functional. The settings on record: Enterovirus B, Vero.
For a further data set, the system named is Sindbis virus. It counts as functional. The settings on record: Vero.
Data set [7] deals with Mammalian orthoreovirus 1. It counts as functional. The settings on record: Mammalian orthoreovirus 1, Vero.
The subject of the next data set is Human respirovirus 3. As to the kind of experiment: microbe, parasite or virus in culture. The settings on record: Human respirovirus 3, Vero.

`CCc1nc(N)nc(N)c1-c1ccc(Cl)cc1` [PYRIMETHAMINE]: the EC50 was greater than 100 µM in the data set with Punta Toro virus; greater than 100 µM in the data set with Coxsackievirus B4 [1]; greater than 83 µM in “cells [2]”; greater than 83 µM in “cells [3]”; greater than 100 µM with Yellow fever virus; greater than 100 µM in data set [4]. Moreover, in the data set with MDCK, the CC50 turned out to be 41 µM.

Turning to `CC(=O)N[C@H]1[C@H]([C@H](O)[C@H](O)CO)OC(C(=O)O)=C[C@@H]1N=C(N)N` [ZANAMIVIR], the CC50 with MDCK is greater than 100 µM. Besides, the EC50 amounted to 0.055 µM in the data set “cells [5]”, 6.8 µM in “cells [2]”, 2.3 µM in “cells [3]” and 0.06 µM in the data set on Influenza B virus.

For the compound `CC1(C)N=C(N)N=C(N)N1c1ccc(Cl)cc1` [CYCLOGUANIL], the EC50 (in the data set on Punta Toro virus; in the data set on Coxsackievirus B4 [6]; in the data set with Sindbis virus; in data set [7]; with Coxsackievirus B4 [1]; in the data set with Yellow fever virus) was greater than 100 µM each time. The EC50 (in data set [4]; in the data set on Human respirovirus 3) was greater than 100 µM throughout. Further, in the data set on MDCK, the CC50 was 52 µM.

Take `CC1(C)N=C(N)N=C(N)N1c1cccc(Br)c1`: the EC50 in the data set with Punta Toro virus, with Coxsackievirus B4 [6], in the data set on Sindbis virus, in the data set on Coxsackievirus B4 [1], in the data set “cells [2]” and in “cells [3]” was greater than 100 µM in each case. Besides, the concentration for a half-maximal effect (EC50) (in the data set with Yellow fever virus; in data set [4]; in the data set with Human respirovirus 3) was greater than 100 µM in each case. Further, in the data set on MDCK, the CC50 came to 29 µM.

`CC1(C)N=C(N)N=C(N)N1c1cccc(Cl)c1`: the EC50 (in the data set on Punta Toro virus; in the data set with Coxsackievirus B4 [6]; in the data set on Sindbis virus; with Coxsackievirus B4 [1]; with Yellow fever virus; in data set [4]) was greater than 100 µM in each case. This compound had an EC50 in the data set on Human respirovirus 3 greater than 100 µM. In the data set with MDCK, the CC50 was 1.4 µM.

In the case of `CC1(C)N=C(N)N=C(N)N1c1ccc(F)cc1`, the EC50 (with Punta Toro virus; in the data set on Coxsackievirus B4 [6]; in the data set with Sindbis virus; in data set [7]; in the data set with Coxsackievirus B4 [1]; in the data set on Yellow fever virus) was greater than 100 µM each time. The EC50 (in [4]; with Human respirovirus 3) was greater than 100 µM each time. Further, the CC50 in the data set with MDCK was greater than 100 µM.

As for `COc1c(C)c2c(c(O)c1C/C=C(\C)CCC(=O)O)C(=O)OC2` [MYCOPHENOLIC ACID], the EC50 was greater than 100 µM in the data set on Coxsackievirus B4 [6], 1.4 µM in the data set on Sindbis virus, 2.3 µM in the data set with Yellow fever virus and 0.4 µM in the data set with Human respirovirus 3.

Regarding `CC(N)C12CC3CC(CC(C3)C1)C2` (centres undefined) [RIMANTADINE], the CC50 in the data set on MDCK was greater than 400 µM. Moreover, the EC50 in “cells [5]” and in the data set with Influenza B virus was greater than 400 µM throughout.

Take `NC1=NC2(CCCCC2)N(c2cccc(C(F)(F)F)c2)C(N)=N1`: the EC50 (in the data set with Punta Toro virus; with Coxsackievirus B4 [6]; in the data set with Sindbis virus; in data set [7]; in the data set with Coxsackievirus B4 [1]; in the data set “cells [2]”) was greater than 100 µM each time. Further, the EC50 (in the data set “cells [3]”; in the data set on Yellow fever virus; in [4]; in the data set with Human respirovirus 3) was greater than 100 µM throughout. Moreover, in the data set on MDCK, the CC50 is greater than 100 µM.

As to `COc1ccc(N2C(N)=NC(N)=NC2(C)C)cc1`, the EC50 (in the data set with Punta Toro virus; in the data set on Coxsackievirus B4 [6]; in the data set on Sindbis virus; in [7]; with Coxsackievirus B4 [1]; in the data set on Yellow fever virus) was greater than 100 µM in each case. Also, the EC50 (in data set [4]; with Human respirovirus 3) was greater than 100 µM throughout. Also, the CC50 with MDCK is greater than 100 µM.

With `CC1(C)N=C(N)N=C(N)N1c1ccccc1`, the EC50 (in the data set on Punta Toro virus; in the data set on Coxsackievirus B4 [6]; in the data set on Sindbis virus; in data set [7]; with Coxsackievirus B4 [1]; in the data set on Yellow fever virus) was greater than 100 µM throughout. Besides, the EC50 (in data set [4]; with Human respirovirus 3) was greater than 100 µM in each case. Besides, in the data set with MDCK, the CC50 was greater than 100 µM.
